Experimental data reported in patent US20070093476A1, “Novel compounds and their use in medicine,as antidiabetic and hypolipidemic agents, process for their preparation and pharmaceutical compositions containing them” (priority 2003, published 2007).
Counter-ions that a name gives are not always drawn.

system: Swiss albino mice; assay: Plasma triglyceride lowering activity in Swiss albino mice; type: in vivo; conditions: Mus musculus, 144 h; Swiss albino mice, 3 mg/kg/d oral, 6 days; read-out: % of Reduction in Triglyceride
Description: b) Plasma Triglyceride and Total Cholesterol Lowering Activity in Swiss Albino Mice and Guinea Pigs
Male Swiss albino mice (SAM) and male Guinea pigs are obtained from NIN and housed in DRF animal house. All these animals are maintained under 12 hour light and dark cycle at 25±1° C. Animals are given standard laboratory chow (NIN, Hyderabad, India) and water, ad libitum. SAM of 20-25 g body weight range and Guinea pigs of 500-700 g body weight range are used (Oliver, P., Plancke, M. O., Marzin, D., Clavey, V., Sauzieres, J and Fruchart, J. C. Effects of fenofibrate, gemfibrozil and nicotinic acid on plasma lipoprotein levels in normal and hyperlipidemic mice. Atherosclerosis. 1988. 70 : 107-114).
The test compounds can be administered orally to Swiss albino mice at 0.3 to 30 mg/kg/day dose for 6 days. Control mice are treated with vehicle (0.25% Carboxymethylcellulose; dose 10 ml/kg). The test compounds are administered orally to Guinea pigs at 0.3 to 30 mg/kg/day dose for 6 days. Control animals are treated with vehicle (0.25% Carboxymethylcellulose; dose 5 ml/kg).
The blood samples can be collected in fed state 1 hour after drug administration on 0 and 6 day of treatment. The blood can be collected from the retro-orbital sinus through heparinised capillary in EDTA containing tubes. After centrifugation, plasma sample was separated for triglyceride and total cholesterol (Wieland, O. Methods of Enzymatic analysis. Bergermeyer, H. O., Ed., 1963. 211-214; Trinder, P. Ann. Clin. Biochem. 1969. 6 : 24-27). Measurement of plasma triglyceride, total cholesterol and HDL are done using commercial kits (Dr. Reddy's Diagnostic Division, Hyderabad, India).

Point of comparison: `CC(C)(Oc1ccc(NCc2ccc3cc(OS(C)(=O)=O)ccc3c2)cc1)C(=O)O` [Example 26, 2-Methyl-2-[4-(6-methanesulfonyloxynapth-2-ylmethylamino}phenoxy]propanoic acid], inhibition in vivo at 3 mg/kg/day 10%. Against it:
- CC(C)(Oc1ccc(OCc2ccc3cc(OS(C)(=O)=O)ccc3c2)cc1)C(=O)O [Example 37, 2-Methyl-2-[4-{6-methanesulfonyloxynapth-2-ylmethoxy}phenoxy]propanoic acid] — higher, 30%

same assay, conditions: Mus musculus, po, 144 h, read-out: % of Reduction in Triglyceride

For `CCOC(Cc1ccc(NCCCC2CCc3cc(OS(C)(=O)=O)ccc3C2)cc1)C(=O)O` (stereo not drawn) [Example 54, 2-Ethoxy-3-[4-{3-(6-methanesulfonyloxy-1,2,3,4-tetrahydronapth-2-yl)propylamino}phenyl]propanoic acid Arginine salt], the inhibition in vivo at 3 mg/kg/day was 43%.

same assay, conditions: Swiss albino mice, 3 mg/kg/d oral, 6 days

Point of comparison: “2-Methyl-2-[3-{3-(4-methanesulfonyloxyphenoxy)propyloxy}phenoxy]propanoic acid Arginine salt [Example 66]”, “% of Reduction in Triglyceride” value 71%. Against it:
- 2-Methyl-2-[3-{3-(3-methanesulfonyloxyphenoxy)propyloxy}phenoxy]propanoic acid Arginine salt [Example 61] — lower, 51%

system: not given; assay: not given; conditions: not given

Point of comparison: `CO[C@@H](Cc1ccc(NCCCn2ccc3ccccc32)cc1)C(=O)O` (as salt: salt) [Example 48, (S)-2-Methoxy-3-[4-{3-(indol-1-yl)propylamino}phenyl]propanoic acid Arginine salt], melting point 105 °C. Against it:
- CCOC(CCCc1ccc(NCc2ccc3cc(OS(C)(=O)=O)ccc3c2)cc1)C(=O)O (stereo not drawn) (as salt: salt) [Example 46, 2-Ethoxy-5-[4-{6-methanesulfonyloxynapth-2-ylmethylamino}phenyl]pentatonic acid Arginine salt] — higher, 118 to 120 °C
- CCOC(Cc1ccc(NCCCn2ccc3ccccc32)cc1)C(=O)O (stereo not drawn) (as salt: salt) [Example 47, 2-Ethoxy-3-[4-{3-(indol-1-yl)propylamino}phenyl]propanoic acid Arginine salt] — higher, 130 °C
- CCO[C@@H](Cc1ccc(NCCCn2ccc3cc(OS(C)(=O)=O)ccc32)cc1)C(=O)O (as salt: salt) [Example 49, (S)-2-Ethoxy-3-[4-{3-(5-methanesulfonyloxyindol-1-yl)propylamino}phenyl]propanoic acid Arginine salt] — lower, 102 to 104 °C
- CO[C@@H](Cc1ccc(NCCCn2ccc3cc(OS(C)(=O)=O)ccc32)cc1)C(=O)O (as salt: salt) [Example 50, (S)-2-Methoxy-3-[4-{3-(5-methanesulfonyloxyindol-1-yl)propylamino}phenyl]propanoic acid Arginine salt] — lower, 102 to 104 °C
- CCOC(Cc1ccc(NCCCN2CCc3ccccc32)cc1)C(=O)O (stereo not drawn) (as salt: salt) [Example 52, 2-Ethoxy-3-[4-{3-2,3-dihydroindol-1-yl)propylamino}phenyl]propanoic acid Arginine salt] — higher, 130 to 132 °C
- CCOC(Cc1ccc(NCC2CCc3cc(OS(C)(=O)=O)ccc3C2)cc1)C(=O)O (stereo not drawn) (as salt: salt) [Example 53, 2-Ethoxy-3-[4-{(6-methanesulfonyloxy-1,2,3,4-tetrahydronapth-2-yl)methylamino}phenyl]propanoic acid Arginine salt] — lower, 96 to 98 °C
- CCOC(Cc1ccc(NCCCC2CCc3cc(OS(C)(=O)=O)ccc3C2)cc1)C(=O)O (stereo not drawn) (as salt: salt) [Example 54, 2-Ethoxy-3-[4-{3-(6-methanesulfonyloxy-1,2,3,4-tetrahydronapth-2-yl)propylamino}phenyl]propanoic acid Arginine salt] — higher, 115 to 117 °C
- CCOC(Cc1ccc(NCCCN2CCCc3ccccc32)cc1)C(=O)O (stereo not drawn) (as salt: salt) [Example 55, 2-Ethoxy-3-[4-{3-1,2,3,4-tetrahydroquinolyn-1-yl)propylamino}phenyl]propanoic acid Arginine salt] — higher, 134 to 136 °C
- CCOC(=O)C(C)(C)Oc1ccc(NCc2ccc3cc(OS(C)(=O)=O)ccc3c2)cc1 [Example 4, Ethyl 2-methyl-2-[4-{6-methanesulfonyloxynapth-2-ylmethylamino}phenoxy]propanoate] — higher, 116 to 118 °C
- CC(C)(Oc1ccc(NCc2ccc3cc(OS(C)(=O)=O)ccc3c2)cc1)C(=O)O [Example 26, 2-Methyl-2-[4-(6-methanesulfonyloxynapth-2-ylmethylamino}phenoxy]propanoic acid] — higher, 182 to 184 °C
- CC(C)(Oc1ccc(OCc2ccc3cc(OS(C)(=O)=O)ccc3c2)cc1)C(=O)O [Example 37, 2-Methyl-2-[4-{6-methanesulfonyloxynapth-2-ylmethoxy}phenoxy]propanoic acid] — higher, 147 to 149 °C
- CC(C)(Oc1cccc(CCCOc2ccc(OS(C)(=O)=O)cc2)c1)C(=O)O [Example 42, 2-Methyl-2-[3-{3-(4-methanesulfonyloxyphenoxy)propyl}phenoxy]propanoic acid] — lower, 93 to 95 °C
- CC(C)(Oc1ccc(CCCOc2ccc(-c3ccccc3)cc2)cc1)C(=O)O [Example 63, 2-{4-[3-(Biphenyl-4-yloxy)-propyl]-phenoxy}-2-methyl-propanoic acid] — higher, 130 to 133 °C
- CC(C)(C)OC(=O)Nc1ccc(OCCCc2ccc(OC(C)(C)C(=O)O)cc2)cc1 [Example 96, 2-Methyl-2-[4-{3-(4-(tert-butyloxycarbonylamino)phenoxy)propyl}phenoxy]propanoic acid] — higher, 132 to 134 °C
- CC(C)(Oc1ccc(CCCOc2ccc(NS(C)(=O)=O)cc2)cc1)C(=O)O [Example 97, 2-Methyl-2-[4-{3-(4-(methanesulfonylamino)phenoxy)propyl}phenoxy]propanoic acid] — higher, 122 to 124 °C
